Test results published in US20250177269A1, “COMPOSITION FOR PROMOTING HAIR SPROUTING OR HAIR GROWTH CONTAINING A THYMOL ESTER-BASED COMPOUND” (AMOREPACIFIC CORPORATION, priority 2023, published 2025).

Test system: dermal papilla (DP) cells and outer root sheath (ORS) cells
Assay: "Two-Cell Assemblage" Assay, hair growth-promoting efficacy
Assay type: cell-based
Conditions: 10 ppm, 20 ppm; cultured for 5 days; vs. control
Experimental: The hair growth-promoting efficacy of 3,4,5-trimethoxycinnamate thymol ester (Melasolv) according to the concentration (10 ppm, 20 ppm) was evaluated using “Two-Cell Assemblage” Assay (“Two-Cell Assemblage” Assay: A Simple in vitro Method for Screening Hair Growth-Promoting Compounds) (Front Cell Dev Biol. 2020 Nov. 24; 8:581528).
The “Two-Cell Assemblage” Assay is an evaluation method that mimics the hair growth of actual hair follicles by co-culturing dermal papilla (DP) cells and outer root sheath (ORS) cells that constitute the hair follicle. That is, the length growth of the “Two-Cell Assemblage” structure has a mechanism similar to that of the actual hair follicle growth, and is being used as a new method of evaluating hair growth-promoting efficacy.
5,000 hair follicle dermal papilla cells were seeded on an ultra-low attachment 96-well plate to form 3D spheroids. After 24 hours, 5,000 outer root sheath cells (Kyungpook National University Industry-Academic Cooperation Foundation) were added together with the test substance to create a “Two-Cell assemblage” structure and cultured for 5 days under 37° C., 5% CO2 conditions. After culturing for 5 days, the length growth was measured using a microscope (OLYMPUS, SZX16) and shown in the Figure (* p<0.05, ** p<0.01, *** p<0.001 vs. control).

COc1cc(/C=C/C(=O)Oc2cc(C)ccc2C(C)C)cc(OC)c1OC [Melasolv, (5-methyl-2-propan-2-ylphenyl) (E)-3-(3,4,5-trimethoxyphenyl) prop-2-enoate]
length growth of the "Two-Cell Assemblage" structure (hair growth efficacy): significant level of length growth-promoting efficacy
